# Measurements from paper PMC9465256, “Discovering monoacylglycerol lipase inhibitors by a combination of fluorogenic substrate assay and activity-based protein profiling” (Frontiers in Pharmacology, 2022).
# Legend:
# [1] = biological target: T1, human ABHD6 (Homo sapiens, UniProt Q9BV23); assay: ABHD6 activity assay (AA-HNA fluorogenic substrate); format: biochemical
# T1 construct: expressed in transfected cells; host or cells: HEK293T (transient transfection; membrane fraction)
# T1 sequence (Q9BV23 1-337): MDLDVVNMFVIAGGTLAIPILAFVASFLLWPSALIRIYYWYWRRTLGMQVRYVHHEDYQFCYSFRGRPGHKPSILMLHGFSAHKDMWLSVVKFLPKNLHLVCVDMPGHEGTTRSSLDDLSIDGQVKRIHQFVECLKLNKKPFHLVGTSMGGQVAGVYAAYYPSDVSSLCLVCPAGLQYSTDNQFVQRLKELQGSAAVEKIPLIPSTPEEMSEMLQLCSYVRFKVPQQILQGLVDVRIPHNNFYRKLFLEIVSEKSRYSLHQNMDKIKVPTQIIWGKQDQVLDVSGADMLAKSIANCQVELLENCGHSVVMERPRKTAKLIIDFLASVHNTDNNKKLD
# Outline: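 Membranes from HEK293T cells transiently overexpressing human ABHD6 (50 μg/ml final) were preincubated 30 min with inhibitor in 40 mM HEPES pH 7.5, 0.1 mg/ml BSA, 5% DMSO. Hydrolysis of 200 µM AA-HNA was followed by fluorescence for 30 min, activity taken as the 5–15 min slope.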
# [2] = system: serine hydrolases labeled by FP-TAMRA in mouse brain membrane proteome; assay: Competitive ABPP selectivity assay, mouse brain membrane proteome; format: biochemical; settings: 100 µM, FP-TAMRA 250 nM
# Protocol: Mouse brains were dounce homogenized lysis buffer (20 mM HEPES, 2 mM DTT, 1 mM MgCl2, 25 U/mL benzonase) and incubated on ice for 15 min, followed by low-speed spin (2,500 g, 3 min, 4 C) to remove debris. The supernatant was subjected to ultracentrifugation (100,000 g, 45 min, 4°C) to generate the cytosolic fraction in the supernatant, as well as the membrane fraction as a pellet. After removal of the soluble supernatant, the pellet was resuspended in storage buffer (20 mM HEPES, 2 mM DTT) by pipetting. Total protein concentrations in membrane and soluble fractions were determined using a Qubit protein assay (Invitrogen). The obtained samples were stored at −80°C until further use.
# The competitive ABPP selectivity assay was performed according to the previously reported protocol. Briefly, mouse brain membrane proteome (2 mg/ml, 20 µl) was preincubated for 30 min with 0.5 µl of DMSO (vehicle) or inhibitor (100 μM, finial concentration). […] The reactions were then quenched by 10 µl sample buffer (×4). The obtained samples were directly loaded and resolved on SDS-PAGE gel (10% acrylamide). The gels were then scanned and analyzed using a ChemiDoc MP system (Cy3 settings, BioRad). All the samples were measured and duplicated.
# [3] = 100 µM, AA-HNA substrate assay, Supplementary Table 2, read-out: ABHD6 Inhibition (%)
SMILES,"activity at 100 µM [1, 3] [%]",further results
"Cl.N=c1ccn2c(n1)O[C@H]1[C@H](O)[C@@H](CO)O[C@H]12 [compound 1, Cyclocytidine HCl]",–,"activity [1, 3]: 89.8%"
"O=c1cc(-c2ccc(O)cc2)oc2cc(O)cc(O)c12 [compound 9, Apigenin]",88.9,–
"COc1ccc2cc3[n+](cc2c1OC)CCc1cc2c(cc1-3)OCO2 [compound 17, Berberine chloride]",112,–
"C[C@H]1COC2=C1C(=O)C(=O)c1c2ccc2c1CCCC2(C)C [compound 23, Cryptotanshinone]",62.5,"inhibition at 100 µM ([1]; recombinant human ABHD6, 100 µM compound): < 50%; ABHD6 inhibition (%) ([1]; recombinant human ABHD6, 100 µM compound, 100 µM): 37%; selectivity profile over serine hydrolases [2]: broad-spectrum inhibitors that cross-reacted with multiple serine hydrolases"
"COc1ccc(C(C)=O)c(O)c1 [compound 64, Paeonol]",96.2,–
